Measurements published in ChEMBL document CHEMBL2169792, “Synthesis of new 4-thiazolidinone-, pyrazoline-, and isatin-based conjugates with promising antitumor activity” (J Med Chem, 2012).

What was measured:
M14 = test: Cytotoxicity against human M14 cells after 48 hrs by SRB assay; type: functional; conditions: M14, 48 h
NCI-H460 = test: Cytotoxicity against human NCI-H460 cells after 48 hrs by SRB assay; type: functional; conditions: NCI-H460, 48 h
MDA-MB-231 = test: Cytotoxicity against human MDA-MB-231 cells after 48 hrs by SRB assay; type: functional; conditions: MDA-MB-231, 48 h
K562 = test: Cytotoxicity against human K562 cells after 48 hrs by SRB assay; type: functional; conditions: K562, 48 h
SW-620 = test: Cytotoxicity against human SW620 cells after 48 hrs by SRB assay; type: functional; conditions: SW-620, 48 h
HOP-92 = test: Cytotoxicity against human HOP92 cells after 48 hrs by SRB assay; type: functional; conditions: HOP-92, 48 h
Hs-578T = test: Cytotoxicity against human Hs578T cells after 48 hrs by SRB assay; type: functional
A498 = test: Cytotoxicity against human A498 cells after 48 hrs by SRB assay; type: functional; conditions: A498, 48 h
EKVX = test: Cytotoxicity against human EKVX cells after 48 hrs by SRB assay; type: functional
HOP-62 = test: Cytotoxicity against human HOP62 cells after 48 hrs by SRB assay; type: functional; conditions: HOP-62, 48 h
HL-60(TB) = test: Cytotoxicity against human HL-60(TB) cells after 48 hrs by SRB assay; type: functional; conditions: HL-60, 48 h
UACC-62 = test: Cytotoxicity against human UACC62 cells after 48 hrs by SRB assay; type: functional; conditions: UACC-62, 48 h
SF-295 = test: Cytotoxicity against human SF295 cells after 48 hrs by SRB assay; type: functional; conditions: SF-295, 48 h
TK-10 = test: Cytotoxicity against human TK10 cells after 48 hrs by SRB assay; type: functional; conditions: TK-10, 48 h
[1] = Cytotoxicity against human melanoma cells after 48 hrs by SRB assay; type: functional; conditions: Melanoma cell
MDA-MB-435 = test: Cytotoxicity against human MDA-MB-435 cells after 48 hrs by SRB assay; type: functional; conditions: MDA-MB-435, 48 h
[2] = Toxicity in mouse; type: organism-based; conditions: in vivo
SN12C = test: Cytotoxicity against human SN12C cells after 48 hrs by SRB assay; type: functional
T47D = test: Cytotoxicity against human T47D cells after 48 hrs by SRB assay; type: functional
[3] = Cytotoxicity against human CNS cancer cells after 48 hrs by SRB assay; type: functional; conditions: Cancer cell lines
PC-3 = test: Cytotoxicity against human PC3 cells after 48 hrs by SRB assay; type: functional; conditions: PC-3, 48 h
U-251 = test: Cytotoxicity against human U251 cells after 48 hrs by SRB assay; type: functional; conditions: U-251, 48 h
HCT-15 = test: Cytotoxicity against human HCT15 cells after 48 hrs by SRB assay; type: functional; conditions: HCT-15, 48 h
SR = test: Cytotoxicity against human SR cells after 48 hrs by SRB assay; type: functional
DU-145 = test: Cytotoxicity against human DU145 cells after 48 hrs by SRB assay; type: functional; conditions: DU-145, 48 h
KM12 = test: Cytotoxicity against human KM12 cells after 48 hrs by SRB assay; type: functional; conditions: KM12, 48 h
SK-MEL-28 = test: Cytotoxicity against human SK-MEL-28 cells after 48 hrs by SRB assay; type: functional; conditions: SK-MEL-28, 48 h
NCI-H226 = test: Cytotoxicity against human NCI-H226 cells after 48 hrs by SRB assay; type: functional; conditions: NCI-H226, 48 h
[4] = Cytotoxicity against human colon cancer cells after 48 hrs by SRB assay; type: functional; conditions: Cancer cell lines
SK-MEL-2 = test: Cytotoxicity against human SK-MEL-2 cells after 48 hrs by SRB assay; type: functional; conditions: SK-MEL-2, 48 h, read-out: LC50 (the source's name)
NCI-H23 = test: Cytotoxicity against human NCI-H23 cells after 48 hrs by SRB assay; type: functional; conditions: NCI-H23, 48 h
OVCAR-3 = test: Cytotoxicity against human OVCAR3 cells after 48 hrs by SRB assay; type: functional; conditions: OVCAR-3, 48 h
MOLT-4 = test: Cytotoxicity against human MOLT4 cells after 48 hrs by SRB assay; type: functional; conditions: MOLT-4, 48 h
UO-31 = test: Cytotoxicity against human UO31 cells after 48 hrs by SRB assay; type: functional; conditions: UO-31, 48 h
UACC-257 = test: Cytotoxicity against human UACC257 cells after 48 hrs by SRB assay; type: functional; conditions: UACC-257, 48 h
[5] = Cytotoxicity against human breast cancer cells after 48 hrs by SRB assay; type: functional; conditions: Cancer cell lines
[6] = read-out: LC50 (the source's name)

COc1ccc(C2CC(c3ccc4ccccc4c3)=NN2C2=NC(=O)/C(=C3\C(=O)Nc4ccc(Br)cc43)S2)cc1 (stereo unspecified)
GI50 (M14): 24.5 nM | TGI (M14): 59.3 nM | CC50 (M14; [6]): > 210 nM | GI50 (NCI-H460): 33.1 nM | TGI (NCI-H460): 112 nM | CC50 (NCI-H460; [6]): 5450 nM | GI50 (MDA-MB-231): 14.5 nM | TGI (MDA-MB-231): 62.7 nM | CC50 (MDA-MB-231; [6]): 349 nM | GI50 (K562): 37 nM | TGI (K562): > 12400 nM | CC50 (K562; [6]): > 100000 nM | GI50 (SW-620): 22 nM | TGI (SW-620): 47.7 nM | CC50 (SW-620; [6]): 127 nM | GI50 (HOP-92): < 10 nM | TGI (HOP-92): 24.2 nM | CC50 (HOP-92; [6]): 1470 nM | GI50 (Hs-578T): 64.4 nM | TGI (Hs-578T): > 1030 nM | CC50 (Hs-578T; [6]): > 100000 nM | GI50 (A498): 25.1 nM | TGI (A498): 78.6 nM | CC50 (A498; [6]): 316 nM | GI50 (EKVX): 47.6 nM | TGI (EKVX): 426 nM | CC50 (EKVX; [6]): > 100000 nM | GI50 (HOP-62): 22 nM | TGI (HOP-62): 49.8 nM | CC50 (HOP-62; [6]): > 157 nM | GI50 (HL-60(TB)): 257 nM | TGI (HL-60(TB)): 3200 nM | CC50 (HL-60(TB); [6]): > 49300 nM | GI50 (UACC-62): 54.7 nM | TGI (UACC-62): 261 nM | CC50 (UACC-62; [6]): 1190 nM | GI50 (SF-295): 26.5 nM | TGI (SF-295): 78.6 nM | CC50 (SF-295; [6]): 1170 nM | GI50 (TK-10): 170 nM | TGI (TK-10): 522 nM | CC50 (TK-10; [6]): > 100000 nM | GI50 [1]: 69 nM | TGI [1]: 190 nM | CC50 [1, 6]: 3520 nM | GI50 (MDA-MB-435): 31.8 nM | TGI (MDA-MB-435): 106 nM | CC50 (MDA-MB-435; [6]): 2440 nM | MTD [2]: > 400 mg/kg | GI50 (SN12C): 43.4 nM | TGI (SN12C): 223 nM | CC50 (SN12C; [6]): 1700 nM | GI50 (T47D): 23.6 nM | TGI (T47D): 61 nM | GI50 [3]: 46 nM | LC50 (concentration giving 50% net cell kill) [3]: 3420 nM | TGI [3]: 210 nM | GI50 (PC-3): 26 nM | TGI (PC-3): 82.7 nM | CC50 (PC-3; [6]): 5460 nM | GI50 (U-251): 24.6 nM | TGI (U-251): 57.8 nM | CC50 (U-251; [6]): 289 nM | GI50 (HCT-15): 62.9 nM | TGI (HCT-15): 325 nM | CC50 (HCT-15; [6]): > 2450 nM | GI50 (SR): 28.9 nM | TGI (SR): 130 nM | CC50 (SR; [6]): > 100000 nM | GI50 (DU-145): 39.3 nM | TGI (DU-145): 752 nM | CC50 (DU-145; [6]): 25500 nM | GI50 (KM12): 23.1 nM | TGI (KM12): 53.5 nM | CC50 (KM12; [6]): 231 nM | GI50 (SK-MEL-28): 21.8 nM | TGI (SK-MEL-28): 51.5 nM | CC50 (SK-MEL-28; [6]): > 205 nM | GI50 (NCI-H226): 21.5 nM | TGI (NCI-H226): 173 nM | CC50 (NCI-H226; [6]): 586 nM | GI50 [4]: 50 nM | LC50 (concentration lethal to 50% of cells) [4]: 1150 nM | TGI [4]: 140 nM | CC50 (SK-MEL-2): 882 nM | GI50 (NCI-H23): 24.6 nM | TGI (NCI-H23): 56.7 nM | CC50 (NCI-H23; [6]): 291 nM | GI50 (OVCAR-3): 21.6 nM | TGI (OVCAR-3): 45 nM | CC50 (OVCAR-3; [6]): 93.7 nM | GI50 (MOLT-4): 30.7 nM | TGI (MOLT-4): 521 nM | CC50 (MOLT-4; [6]): > 100000 nM | GI50 (UO-31): 57.8 nM | GI50 (UACC-257): 51.1 nM | TGI (UACC-257): 318 nM | CC50 (UACC-257; [6]): > 100000 nM | GI50 [5]: 61 nM | LC50 (concentration causing 50% net cell kill) [5]: 2650 nM | TGI [5]: 990 nM
